Entries after “also recorded” stand apart in the source; their conditions may differ.

In data set [1] the test system is XBP-1s expression in Mino cells. In words: Inhibition of XBP-1s expression in Mino cells (immunoblots and densitometry). As to conditions: various doses, 24 h. Format: cell-based, human.
Protocol: (§2) Protein concentrations were determined by BCA assays (Pierce). […] Proteins were transferred to nitrocellulose membranes, blocked in 5% non-fat milk (wt/vol in PBS), and immunoblotted with indicated primary antibodies and appropriate horseradish peroxidase-conjugated secondary antibodies. Immunoblots were developed using Western Lighting Chemiluminescence Reagent (Perkin-Elmer).
Data set [2] relates to XBP-1s expression in Jeko cells. In words: Inhibition of XBP-1s expression in Jeko cells (immunoblots and densitometry). Format: cell-based, human. As to conditions: various doses, 24 h.
Protocol: as §2
The next data set concerns Mino and Jeko cells. In words: PARP cleavage by immunoblot in Mino and Jeko cells. The conditions noted are these: 50 mM (so in the source), 72 h.
A further data set concerns MEC1. The data set is described as follows: cells. The conditions noted are these: Homo sapiens, MEC1, 48 h, read-out: GI50 (50% growth inhibition) concentration.
A further data set relates to MEC2. In words: cells. As to conditions: Homo sapiens, MEC2, 48 h, read-out: GI50 (50% growth inhibition) concentration.
A further data set relates to WaC3. In words: cells. As to conditions: Homo sapiens, 48 h, read-out: GI50 (50% growth inhibition) concentration.
In another data set the test system is XBP-1 mRNA splicing. The data set is described as follows: XBP-1 mRNA splicing by RT-PCR. Format: cell-based. The conditions noted are these: human WaC3 CLL cells, 24 h.
The subject of a further data set is primary human CLL cells. In words: Cell proliferation XTT assay, primary human CLL cells. Type of data set: cell-based. As to conditions: 20 μM, 3 days. As for the experimental part:
(§1) Eμ-TCL1, MEC1, MEC2, WaC3, or primary human CLL cells were grown in 96-well cell culture plates overnight and then treated with fresh phenol red-free culture medium containing STF-083010 (50 μM), A-I06 (50 μM), A-I07 (50 μM) or fludarabine (30 μM). […] Briefly, 50 μl XTT labeling reagent was combined with 100 μl electron-coupling reagent, and the mixture was applied to each well of the 96-well plates. The test was based on cleavage of the yellow tetrazolium salt XTT by mitochondrial dehydrogenases of the metabolic active cells to form the orange formazan compound, which can be spectrophotometrically quantified at 492 nm using a BioTek microplate reader.

In a further data set the test system is XBP-1s expression. The data set is described as follows: Inhibition of XBP-1s expression in LPS-stimulated mouse B cells (immunoblots). Type of data set: cell-based. The conditions noted are these: LPS 48 h, then inhibitor 20 μM for 24 h (Example 3 prints 20 mM).
A short description of data set [3]: Pharmacokinetics of B-I09 in mouse plasma. Type of data set: in vivo. The conditions noted are these: 50 mg/kg intraperitoneally. As for the experimental part: In vivo pharmacokinetics studies were carried out at Agilux Laboratories, Inc. (Worchester, Mass.) using male CD-1 mice (Charles River Laboratories, Wilmington, Mass.). B-I09 was administered intraperitoneally at 50 mg/kg as a solution in DMSO to a group of 3 male CD-1 mice. Compound blood was collected via tail snip into calibrated microvette tubes containing K2EDTA at 0.25, 0.5, 1, 2, 4, 8, and 24 h post dosing. Blood samples were stored on wet ice until processed to plasma by centrifugation within 1 hour of collection. All plasma samples were transferred to 96 well plates and stored at −80° C. until analyzed for B-I09 concentration via LC/MS/MS using a C18 RP-HPLC column (2.1×50 mm) and an acetonitrile:water (with 0.1% formic acid) mobile phase elution gradient. B-I09 was quantified by analysis with API 5500 TurbolonSpray positive ion MS detection. A non-compartmental model was applied to calculate pharmacokinetic parameters using WinNonlin 4.2 software.

The subject of the next data set is phosphorylation of BTK. The data set is described as follows: BCR activation and phosphorylation assay. Format: cell-based. The conditions noted are these: wild-type and Eμ-TCL1 B cells, B-I09 20 μM, F(ab′)2 anti-mouse IgM. The method, then:
XBP-1^WT/Eμ-TCL1 B cells, XBP-1^KO/Eμ-TCL1 B cells, B-I09-treated wild-type B cells or B-I09-treated Eμ-TCL1 B cells were suspended in RPMI serum-free media supplemented with 25 mM Hepes, stimulated with F(ab′)^2 fragments of the goat anti-mouse IgM antibody (20 μg/ml) (SouthemBiotech) for 2 min, and lysed immediately by adding ice-cold lysis buffer (50 mM Tris-HCl, pH 8.0; 150 mM NaCl; 1% Triton X-100; 1 mM EDTA) supplemented with protease inhibitor cocktail (Roche), 4 mM sodium pyrophosphate, 2 mM sodium vanadate and 10 mM sodium fluoride. The lysates were analyzed by SDS-PAGE. Phosphorylated proteins of interest were detected by immunoblots using phospho-specific antibodies.

For another data set, the system named is CLL-bearing Eμ-TCL1 mice. Type of data set: in vivo.
The next data set relates to Eμ-TCL1 CLL cells. In words: Cell proliferation XTT assay, Eμ-TCL1 CLL cells. Format: cell-based, mouse. As to conditions: 20 μM, 3 days. The method, then:
as §1

A short description of data set [4]: Degradation (chemical stability) studies by HPLC/LCMS. Type of data set: physicochemical. The method, then:
The degradation of analog 24 was plotted as a function of time upon exposure to FRET-suppression assay buffer at rt. Aliquots were partitioned with MeOH and injected onto LCMS (UV monitored at 320 nm) and peaks integrated relative to internal standard.
A 20 mM stock solution of B-I09 in DMSO was diluted to 0.5 mM in FRET assay buffer (20 mM HEPES, pH 7.5, 50 mM KOAc, 0.5 mM MgCl2, 3 mM DTT, 0.4% PEG) or cell culture media (RPMI supplemented with 10% fetal bovine serum). The FRET assay buffer and cell culture media solutions were incubated at room temperature and 37° C., respectively. At various time points, a 50 μL aliquot of each solution was added to 50 μL of methanol and the mixture analyzed by analytical reverse-phase HPLC (C18 4 mm×150 mm column, 1 mL/min flow rate) with acetonitrile/water (0.1% formic acid) as eluent. Absorbance was read at 320 nm and the degradation product (aldehyde) was identified by LCMS and co-injection with pure synthetic sample. Degradation studies were carried out in duplicate and data points reported as the mean of two values.

Data set [5] can be described thus: Aqueous solubility (stated in words). Type of data set: physicochemical.

Protocol for CLL-bearing Eμ-TCL1 mice: (B) CLL-bearing Eμ-TCL1 mice were intraperitoneally injected with DMSO (n=3) or B-I09 (50 mg/kg in DMSO, n=8) daily for the first 5 days weekly for three weeks. Blood was collected to measure lymphocyte numbers using a HemaTrue Hematology Analyzer (HESKA). Data were compared with lymphocyte counts prior to B-I09 injections, and plotted as mean±SEM. (C) Lymphocyte counts in the peripheral blood of B-I09-treated Eμ-TCL1 mice (n=8) were plotted as mean±SEM. […] (E) Splenocytes from DMSO- or B-I09-injected Eμ-TCL1 mice were stained with IgM-PE-Cy7, B220-FITC, CD5-APC, Annexin V-PE and 7-AAD. Gated IgM+/B220+/CD5+ splenic CLL cells were analyzed for Annexin V- and/or 7-AAD-positive populations. (F) Percentages of apoptotic cells in gated IgM^+/B220^+/CD5^+ CLL populations from spleens of DMSO-injected (n=3) or B-I09-injected (n=8) Eμ-TCL1 mice were plotted as mean±SEM. (G) Weight of DMSO-injected (n=3) or B-I09-injected (n=8) Eμ-TCL1 mice was plotted as mean±SD. (H) Paraffin-embedded sections of indicated organs from Eμ-TCL1 mice receiving three weeks of injections with DMSO or B-I09 were stained with hematoxylin and eosin.
Tumor-bearing Eμ-TCL1 mice in which CLL cells comprise the majority of the lymphocytes in the peripheral blood (FIG. 33) were selected. The mice were then treated with 50 mg/kg B-I09 on the first five days of each week for three weeks. […] Since CLL cells proliferate in secondary lymphoid organs and are protected from cell death through interactions with microenvironments, whether B-I09 has an effect on CLL cells residing in the spleen was evaluated.
Protocol for Mino and Jeko cells: Cells were lysed for the analysis of the indicated proteins by immunoblot.
as §2
Description for XBP-1 mRNA splicing: Total RNA was isolated using TRIzol reagent (Invitrogen). Complementary DNA was synthesized from RNA using Superscript II reverse transcriptase (Invitrogen).

On to `CC(=O)N1CCc2c(c(=O)oc3c(C=O)c(O)ccc23)C1` [Compound 29, 3-acetyl-8-hydroxy-5-oxo-2,3,4,5-tetrahydro-1H-chromeno[3,4-c]pyridine-7-carbaldehyde], for which the “IC50 for blocking XBP-1s expression (in words)” value in data set [1] and in data set [2] was “sub-micromolar range” each time.
Regarding `CN1CCc2c(c(=O)oc3c(C=O)c(O)ccc23)C1` [Compound 30, 8-hydroxy-3-methyl-5-oxo-2,3,4,5-tetrahydro-1H-chromeno[3,4-c]pyridine-7-carbaldehyde], in the data set on Mino and Jeko cells, the “PARP cleavage (in words)” value is listed as “induced PARP cleavage more strongly than either 21b or 5”.
For the compound `C=CC(=O)N1CCC[C@@H](n2nc(-c3ccc(Oc4ccccc4)cc3)c3c(N)ncnc32)C1` [ibrutinib], the GI50 in the data set with MEC1, in the data set on MEC2 and in the data set with WaC3 was 10 to 20 µM in each case.
On to `O=c1oc2c(C3OCCCO3)c(O)ccc2c2c1CNCC2` [Compound 28, 7-(1,3-dioxan-2-yl)-8-hydroxy-3,4-dihydro-1H-chromeno[3,4-c]pyridin-5(2H)-one], for which the “inhibition of splicing of XBP-1 mRNA (in words)” value with XBP-1 mRNA splicing is on record as “highly effective”. Besides, the “inhibition of growth of CLL cells from human patients (in words)” value with primary human CLL cells is recorded as “most potent inhibitor”. In addition, the “inhibition of XBP-1s expression (in words)” value in the data set with XBP-1s expression is “highly effective”. Also, in [3], the peak concentration was ~39 µM and the “time of peak concentration after administration” value was determined as 15 min. Also, the half-life in data set [3] (male, CD-1, ip) was ~1.5 h. For the same compound, in the data set on phosphorylation of BTK, the “BCR signaling, phosphorylation of BTK (in words)” value is “reduced phosphorylation of BTK”. In the data set with CLL-bearing Eμ-TCL1 mice (50 mg/kg for three weeks vs DMSO), the “apoptotic CD5+ CLL cells in the spleens (in words)” value is given as “significant increase”. Moreover, the “CLL in the peripheral blood (in words)” value in the data set on CLL-bearing Eμ-TCL1 mice (50 mg/kg i.p., first five days of each week for three weeks) is “Clear CLL regression”. Besides, the “numbers of lymphocytes in the peripheral blood (in words)” value in the data set on CLL-bearing Eμ-TCL1 mice (after three weeks, normal range 500-5000 cells/μL) is “dropped close to the normal range”. In addition, in the data set with CLL-bearing Eμ-TCL1 mice (immunoblots, B-I09-injected mice), the “expression of XBP-1s in CLL cells from peripheral blood (in words)” value was “inhibits the expression of XBP-1s”. For the same compound, in the data set on CLL-bearing Eμ-TCL1 mice (three weeks of treatment), the “adverse effects or toxicity to mice (in words)” value is “no apparent adverse effects or toxicity”; the “weight loss and histological changes to vital organs (liver, lungs, kidney, heart)” value is “no significant weight loss or apparent histological changes”. Moreover, the “inhibition of mouse CLL cell growth (in words)” value with Eμ-TCL1 CLL cells is “more effective than B-H09 and 4μ8C”. Besides, the “fraction intact in cell culture media” value in [4] (37° C., 24 h) is listed as “greater than 50%”. The half-life at 0.5 mM in [4] (cell culture media, 37° C., read-out: t1/2 in cell culture media (converted)) is ~30 h. In addition, the “stability of 1,3-dioxane group in FRET-suppression assay buffer (in words)” value in [4] (room temperature, up to 48 h, listed as B-I09) is recorded as “remains completely intact; also recorded: stable”. Further, in [5], the “solubility (in words)” value is recorded as “water soluble”.

The values above are taken from patent publication US10323013B2, “Inhibitors of the IRE-1/XBP-1 pathway and methods of using thereof” (H. LEE MOFFITT CANCER CENTER AND RESEARCH INSTITUTE, INC., priority 2013, dated 2019).
